# Source: patent EP4663640A1 (Shanghai Institute of Materia Medica, Chinese Academy of …, priority 2023, dated 2024)
# pIC50: −log10 of the molar value. Where two headings read alike, the source gives them in different places.
# How the values were obtained:
# [1] = tested on: mice; assay: Tail suspension test (antidepression); assay type: in vivo
# Protocol: The drug to be tested was dissolved in DMSO: Tween 80: distilled water at a ratio of 2:2:96 (v/v/v), and then administered to mice by gavage at a volume of 10 mL/kg. […] The blank control group was only given 10 mL/kg of the above solvent.
# The mouse tail suspension test (TST) is a widely used experimental method to evaluate the effectiveness of antidepressants and other psychotropic drugs. The principle of the test is to suspend a mouse by its tail and observe its behavior. The mouse will initially struggle to escape, but when it realizes that escape is impossible, it will eventually stop struggling and enter a state of immobility that indicates despair. This immobility behavior is used to measure depression-like states, and the severity of the condition is assessed by recording the duration of immobility.
# The same mouse was subjected to the tail suspension test immediately after the marble burying test. A tail suspension test box was built using a black frosted acrylic board, 55 cm high, 15 cm long, and 11.5 cm wide. The three sides and top of the box were frosted blackboards, and one side was used for video recording. The mouse tail was wrapped with yellow tape 2 cm away from the tip of the tail, and the mouse was hung upside down in the middle of the top acrylic board. The tip of the mouse tail was about 3 cm away from the acrylic board, and the body was suspended and could not touch the surrounding board wall. The test time for each mouse lasted for 6 minutes, and the immobility time of the mouse during this time was counted. After the experiment, the mouse was returned to the cage, and the inside of the box and the table were wiped with alcohol to remove the smell of the previous mouse to prevent affecting the next mouse experiment. The criteria for immobility in the tail suspension test: stop struggling, no flexion or twisting of the body, no swinging of the hind limbs, and slight swinging of the forelimbs and head were also counted as immobility time.
# [2] = Liver microsome stability test, human
# [3] = target: T1, hERG channel (relative to TRPC5) (Homo sapiens, UniProt Q12809); assay: hERG channel inhibition assay (Qpatch whole-cell recording, CHO cells expressing hERG); assay type: cell-based; conditions: human, CHO cells expressing hERG; ratio of IC50 values
# T1 construct: expressed in transfected cells; host or cells: CHO
# Protocol: CHO cells expressing hERG protein were cultured in 175cm^2 culture flasks. When the cell density grew to 60-80%, the culture medium was removed, and the cells were washed with 7mL PBS, and then 3mL Detachin was added for digestion. After digestion was complete, 7mL culture medium was added for neutralization, and then centrifuged, the supernatant was aspirated, and 5mL culture medium was added for resuspending to ensure that the cell density was 2-5×10^6/mL.
# The single-cell high-impedance sealing and whole-cell pattern formation process were all automatically completed by the Qpatch instrument. After obtaining the whole-cell recording mode, the cell was clamped at -80 mV. […] This voltage stimulus was applied every 15 seconds. After recording for 2 minutes, the extracellular solution was recorded for 2 minutes, and then the drug administration process began. The compound concentration started from the lowest test concentration, and each test concentration was given for 2 minutes. After all concentrations were given continuously, the positive control compound 10 µM Cisapride was given. At least 3 cells (n≥3) were tested for each concentration.
# The stock solution of compound was diluted with extracellular solution, 5 µL of 20 mM compound stock solution was added to 2495 µL of extracellular solution, 500 times diluted to 40 µM, and then 3 times serial dilution was performed in the extracellular solution containing 0.2% DMSO to obtain the final concentration to be tested.
# (5) Data analysis: The experimental data were analyzed by XLFit software.
# [4] = target: T2, hTRPC4 (Homo sapiens, UniProt Q9UBN4); assay: TRPC4 inhibitory activity assay (FLIPR calcium fluorescence); assay type: cell-based
# T2 construct: expressed in transfected cells; host or cells: HEK-293
# T2 sequence (Q9UBN4 1-977): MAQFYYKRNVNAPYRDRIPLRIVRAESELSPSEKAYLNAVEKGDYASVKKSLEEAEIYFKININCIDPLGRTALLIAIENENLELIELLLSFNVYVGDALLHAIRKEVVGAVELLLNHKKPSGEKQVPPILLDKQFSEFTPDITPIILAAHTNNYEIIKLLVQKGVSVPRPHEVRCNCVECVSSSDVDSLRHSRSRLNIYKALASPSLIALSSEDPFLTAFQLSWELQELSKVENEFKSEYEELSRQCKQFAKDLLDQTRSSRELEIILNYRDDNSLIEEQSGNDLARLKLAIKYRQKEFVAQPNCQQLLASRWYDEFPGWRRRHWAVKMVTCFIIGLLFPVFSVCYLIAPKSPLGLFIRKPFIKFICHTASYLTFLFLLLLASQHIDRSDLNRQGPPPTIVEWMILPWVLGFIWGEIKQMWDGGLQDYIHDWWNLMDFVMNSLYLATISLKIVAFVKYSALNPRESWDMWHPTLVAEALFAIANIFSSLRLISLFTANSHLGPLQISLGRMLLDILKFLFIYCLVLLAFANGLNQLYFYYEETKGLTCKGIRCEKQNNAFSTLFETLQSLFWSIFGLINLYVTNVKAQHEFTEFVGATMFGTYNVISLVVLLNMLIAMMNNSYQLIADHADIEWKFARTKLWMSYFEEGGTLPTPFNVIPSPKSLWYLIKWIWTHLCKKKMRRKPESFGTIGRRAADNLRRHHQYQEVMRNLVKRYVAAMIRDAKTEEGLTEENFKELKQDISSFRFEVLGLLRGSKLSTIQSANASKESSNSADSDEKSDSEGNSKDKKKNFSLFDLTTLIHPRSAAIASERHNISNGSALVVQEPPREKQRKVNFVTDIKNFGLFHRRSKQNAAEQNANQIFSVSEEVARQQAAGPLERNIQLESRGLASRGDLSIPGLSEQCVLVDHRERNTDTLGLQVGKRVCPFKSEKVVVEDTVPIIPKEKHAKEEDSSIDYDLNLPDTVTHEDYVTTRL
# Protocol: HEK-293 cells expressing hTRPC3, hTRPC4 or hTRPC5 were seeded into black-bottomed 96-well plates coated with poly-lysine (PDL), with 2×10^4 cells per well. After 8 h of culture, the original culture medium was discarded, and 60 µL of Fluo-4/AM dye with a final concentration of 4 µM was added. The plates were incubated at 37 °C for 60 min, and then rinsed five times with calcium flow detection buffer. […] Then, the agonist Englerin A (EA) (MedChemExpress, Shanghai, China, final concentration of 0.3nM) was added, and the fluorescence signal was collected for 600 seconds. The fluorescence signal of the trajectory diagram is represented by F/F0, wherein F is the fluorescence signal at different time points, and F0 is the basic fluorescence signal, that is, the average value of the fluorescence signal at the first 10 time points. […] The area under the curve of the change in fluorescence intensity after adding EA was calculated. IC50 value was calculated using log[Inhibitor] vs. response - Variable slope, taking into account the area under the curve and the log value of the concentration of the compound.
# [5] = Table 3, read-out: inhibitory activity IC50 TRPC4
# T1 sequence (Q12809 whole entry): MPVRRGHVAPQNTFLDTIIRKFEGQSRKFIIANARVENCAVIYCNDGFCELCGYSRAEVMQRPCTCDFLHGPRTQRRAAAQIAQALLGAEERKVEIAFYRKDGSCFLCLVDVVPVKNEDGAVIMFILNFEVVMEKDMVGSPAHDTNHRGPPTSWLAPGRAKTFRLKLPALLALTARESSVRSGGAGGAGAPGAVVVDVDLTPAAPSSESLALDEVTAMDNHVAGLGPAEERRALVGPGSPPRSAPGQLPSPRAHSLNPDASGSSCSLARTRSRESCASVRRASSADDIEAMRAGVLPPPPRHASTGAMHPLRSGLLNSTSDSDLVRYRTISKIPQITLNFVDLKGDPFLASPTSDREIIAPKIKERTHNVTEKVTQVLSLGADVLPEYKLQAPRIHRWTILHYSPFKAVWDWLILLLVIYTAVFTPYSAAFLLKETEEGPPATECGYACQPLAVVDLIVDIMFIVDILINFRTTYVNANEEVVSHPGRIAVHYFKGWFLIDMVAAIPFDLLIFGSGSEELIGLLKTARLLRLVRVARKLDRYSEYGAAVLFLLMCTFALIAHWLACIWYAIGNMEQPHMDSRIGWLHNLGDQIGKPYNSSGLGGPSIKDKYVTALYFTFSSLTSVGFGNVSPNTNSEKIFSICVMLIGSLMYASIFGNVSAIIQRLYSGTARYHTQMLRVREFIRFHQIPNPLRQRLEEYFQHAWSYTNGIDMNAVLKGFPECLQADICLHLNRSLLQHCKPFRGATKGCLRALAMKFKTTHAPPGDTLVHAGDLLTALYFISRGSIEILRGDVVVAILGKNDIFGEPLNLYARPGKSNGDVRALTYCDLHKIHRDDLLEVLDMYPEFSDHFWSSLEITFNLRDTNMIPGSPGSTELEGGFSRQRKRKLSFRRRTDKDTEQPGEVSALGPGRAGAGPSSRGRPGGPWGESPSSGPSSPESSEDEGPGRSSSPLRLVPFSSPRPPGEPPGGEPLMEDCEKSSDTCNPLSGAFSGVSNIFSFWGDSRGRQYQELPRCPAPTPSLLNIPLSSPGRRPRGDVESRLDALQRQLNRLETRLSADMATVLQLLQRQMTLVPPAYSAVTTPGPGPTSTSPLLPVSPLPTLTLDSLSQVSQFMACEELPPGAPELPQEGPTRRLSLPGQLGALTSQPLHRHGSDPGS
structure (smiles),measurement,setting,value
"Cn1c(=O)n(CCCO)c(=O)c2c1nc(C1(F)CCC(F)(F)CC1)n2Cc1ccc(F)c(Cl)c1 [Example E68, 7-(3-chloro-4-fluorobenzyl)-1-(3-hydroxypropyl)-3-methyl-8-(1,4,4-trifluorocyclohexyl)-3,7-dihydro-1H-purine-2,6-dione]",immobility time of mice in the tail suspension box,"[1]; oral 0.03 mg/kg, test with reduced dosage (Figure 6), comparable to 0.1 mg/kg of HC-070",significantly reduce
same,immobility time of mice,"[1]; oral 0.1, 0.3, 1 mg/kg, before versus after administration (Figure 4)",significantly reduced
same,Stability Evaluation,[2]; Human liver microsomes,"Medium (30%<MF%<70%, medium metabolic stability)"
same,MF %,"[2]; Human liver microsomes, metabolic bioavailability",55.2%
same,half-life at 1 µM,"[2]; human, liver microsomes, pH 7.4",2.2 h
same,selectivity ratio at 2 min,[3],> 69000
Cn1c(=O)n(CCCO)c(=O)c2c1nc(C1(F)CCC(C(F)(F)F)CC1)n2Cc1ccc(F)c(F)c1 (centres unmarked) [Example E52],pIC50,[4],8.24
"Cn1c(=O)n(CCCO)c(=O)c2c1nc(C1(F)CCC(C(F)(F)F)CC1)n2Cc1ccc(Cl)cc1 (centres unmarked) [Example E21, 7-(4-chlorobenzyl)-8-(1-fluoro-4-(trifluoromethyl)cyclohexyl)-1-(3-hydroxypropyl)-3-methyl-3,7-dihydro-1H-purine-2,6-dione]",pIC50,[4]; [5],8.08
same,selectivity ratio at 2 min,[3],> 7840
"COC1CCC(F)(c2nc3c(c(=O)n(CCCO)c(=O)n3C)n2Cc2ccc(Cl)cc2)CC1 (centres unmarked) [Example E32, 7-(4-chlorobenzyl)-8-(1-fluoro-4-methoxycyclohexyl)-1-(3-hydroxypropyl)-3-methyl-3,7-dihydro-1H-purine-2,6-dione]",pIC50,[4]; [5],7.74
same,selectivity ratio at 2 min,[3],737
